In experiment [1] the target is Serine/threonine-protein kinase 4 (Homo sapiens) (UniProt Q13043). The experiment is described as follows: Inhibition of MST1 Lys2 labeling site harbouring IHRDIKAGNILLNTEGHAK in human Huh-7 cell lysate at 1 uM by KiNativ Profiling analysis relative to control.
Experiment [2] deals with T1, Serine/threonine-protein kinase TBK1 (Homo sapiens) (UniProt Q9UHD2).
T1 sequence (whole entry): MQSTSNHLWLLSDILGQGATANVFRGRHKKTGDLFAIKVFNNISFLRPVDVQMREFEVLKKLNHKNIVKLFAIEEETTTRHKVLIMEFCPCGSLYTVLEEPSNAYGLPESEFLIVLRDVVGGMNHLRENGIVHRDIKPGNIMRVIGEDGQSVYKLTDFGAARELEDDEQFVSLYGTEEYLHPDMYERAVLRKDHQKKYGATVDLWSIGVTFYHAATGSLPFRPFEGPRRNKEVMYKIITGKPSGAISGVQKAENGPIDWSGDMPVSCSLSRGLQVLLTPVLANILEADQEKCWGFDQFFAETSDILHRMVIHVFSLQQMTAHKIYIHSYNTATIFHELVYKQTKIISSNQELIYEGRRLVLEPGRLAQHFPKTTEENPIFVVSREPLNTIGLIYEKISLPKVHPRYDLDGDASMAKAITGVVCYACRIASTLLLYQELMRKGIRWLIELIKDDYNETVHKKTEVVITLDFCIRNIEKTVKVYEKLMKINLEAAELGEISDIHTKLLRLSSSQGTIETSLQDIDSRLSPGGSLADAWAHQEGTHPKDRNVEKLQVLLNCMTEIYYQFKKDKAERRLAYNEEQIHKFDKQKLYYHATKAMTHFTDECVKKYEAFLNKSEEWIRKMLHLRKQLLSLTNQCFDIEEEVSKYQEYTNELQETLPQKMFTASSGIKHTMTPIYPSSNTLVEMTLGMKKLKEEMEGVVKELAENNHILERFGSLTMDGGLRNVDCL
Description: Inhibition of TBK1 Lys2 labeling site in human Huh-7 cell lysate at 1 uM by KiNativ Profiling analysis relative to control. The class given is subcellular.

Experiment [3] concerns the target Serine/threonine-protein kinase 4 (Homo sapiens) (UniProt Q13043). Description: Inhibition of MST1 Lys1 labeling site harbouring AIHKETGQIVAIKQVPVESDLQEIIK in human Huh-7 cells at 1 uM by KiNativ Profiling analysis relative to control.
Experiment [4] deals with Mitogen-activated protein kinase 9 (Homo sapiens, UniProt P45984). The experiment is described as follows: Inhibition of JNK2 Lys2 labeling site in human Huh-7 cells at 1 uM by KiNativ Profiling analysis relative to control. Format: cell-based.
The target in experiment [5] is Serine/threonine-protein kinase 32C (Homo sapiens) (UniProt Q86UX6). Description: Inhibition of YANK3 Lys2 labeling site in human A-375 cells at 0.5 uM by KiNativ Profiling analysis relative to control. Format: cell-based.
Experiment [6] addresses T2, Aurora kinase C (Homo sapiens) (UniProt Q9UQB9).
T2 sequence (whole entry): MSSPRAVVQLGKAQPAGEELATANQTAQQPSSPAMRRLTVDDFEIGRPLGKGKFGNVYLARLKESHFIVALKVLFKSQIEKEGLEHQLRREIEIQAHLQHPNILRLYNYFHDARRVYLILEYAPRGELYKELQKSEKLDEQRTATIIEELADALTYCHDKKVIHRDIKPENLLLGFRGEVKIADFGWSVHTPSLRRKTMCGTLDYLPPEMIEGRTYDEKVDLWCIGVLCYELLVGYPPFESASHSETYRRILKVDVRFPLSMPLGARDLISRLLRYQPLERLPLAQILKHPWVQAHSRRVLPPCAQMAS
Description: Inhibition of AURKC (unknown origin) at 1 uM by Ambit Kinomescan binding assay relative to control; values are per cent of control.

For experiment [7], the target named is NT-3 growth factor receptor (Homo sapiens) (UniProt Q16288). Description: Inhibition of TRKC (unknown origin) at 1 uM by Ambit Kinomescan binding assay relative to control.
The target in experiment [8] is Serine/threonine-protein kinase/endoribonuclease IRE1 (Homo sapiens) (UniProt O75460). Description: Inhibition of IRE1 Lys2 labeling site in human A-375 cells at 0.05 uM by KiNativ Profiling analysis relative to control. Format: cell-based.
For experiment [9], the target named is T3, Serine/threonine-protein kinase Sgk3 (Homo sapiens) (UniProt Q96BR1).
T3 sequence (whole entry): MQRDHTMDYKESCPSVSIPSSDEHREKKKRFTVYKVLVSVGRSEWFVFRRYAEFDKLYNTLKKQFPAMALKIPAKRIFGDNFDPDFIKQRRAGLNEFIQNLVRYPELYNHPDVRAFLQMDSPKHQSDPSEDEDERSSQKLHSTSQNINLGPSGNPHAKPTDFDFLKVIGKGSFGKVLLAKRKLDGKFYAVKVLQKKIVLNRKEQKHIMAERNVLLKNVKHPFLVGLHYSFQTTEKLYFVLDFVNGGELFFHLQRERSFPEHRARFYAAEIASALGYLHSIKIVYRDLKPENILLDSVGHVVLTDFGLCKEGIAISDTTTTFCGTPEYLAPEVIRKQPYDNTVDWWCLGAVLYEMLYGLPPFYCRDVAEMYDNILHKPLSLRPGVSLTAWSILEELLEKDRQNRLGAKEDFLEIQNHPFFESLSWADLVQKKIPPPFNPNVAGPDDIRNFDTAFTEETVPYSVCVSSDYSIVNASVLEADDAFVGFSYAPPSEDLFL
Description: Inhibition of SGK3 K1 labeling site in human Huh-7 cells at 1 uM by KiNativ Profiling analysis relative to control. Format: cell-based.

Experiment [10] has as its target T4, Dual specificity mitogen-activated protein kinase kinase 6 (Homo sapiens) (UniProt P52564).
T4 sequence (whole entry): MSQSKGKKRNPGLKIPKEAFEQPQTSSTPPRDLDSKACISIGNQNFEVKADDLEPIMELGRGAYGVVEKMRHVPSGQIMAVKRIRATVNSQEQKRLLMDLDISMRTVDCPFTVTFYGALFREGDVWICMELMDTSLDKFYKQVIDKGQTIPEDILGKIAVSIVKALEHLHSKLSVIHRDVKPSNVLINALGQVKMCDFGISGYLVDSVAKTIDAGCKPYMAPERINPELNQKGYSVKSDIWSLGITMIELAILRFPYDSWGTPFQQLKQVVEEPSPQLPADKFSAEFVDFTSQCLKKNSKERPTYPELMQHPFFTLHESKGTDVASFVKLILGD
The experiment is described as follows: Inhibition of MAP2K6 Lys2 labeling site in human A-375 cells at 0.05 uM by KiNativ Profiling analysis relative to control. Format: cell-based.

Experiment [11] deals with AMPK alpha1/alpha2 (Homo sapiens) (UniProt P54646+Q13131). Description: Inhibition of AMPK alpha1/2 K2 labeling site in human Huh-7 cells at 1 uM by KiNativ Profiling analysis relative to control. The class given is cell-based.
For experiment [12], the target named is Mitogen-activated protein kinase kinase kinase 4 (Homo sapiens) (UniProt Q9Y6R4). The experiment is described as follows: Inhibition of MAP3K4 (unknown origin) at 10 uM by Ambit Kinomescan binding assay.

The values that follow come from ChEMBL document CHEMBL5696442, “Discovery of type II inhibitors of TGFβ-activated kinase 1 (TAK1) and mitogen-activated protein kinase kinase kinase kinase 2 (MAP4K2)” (J Med Chem, 2015).

Calls of active or inactive are those of the source. The rule behind the calls is not given here.

Serine/threonine-protein kinase 4 (Homo sapiens), sequence (Q13043 whole entry, looked up): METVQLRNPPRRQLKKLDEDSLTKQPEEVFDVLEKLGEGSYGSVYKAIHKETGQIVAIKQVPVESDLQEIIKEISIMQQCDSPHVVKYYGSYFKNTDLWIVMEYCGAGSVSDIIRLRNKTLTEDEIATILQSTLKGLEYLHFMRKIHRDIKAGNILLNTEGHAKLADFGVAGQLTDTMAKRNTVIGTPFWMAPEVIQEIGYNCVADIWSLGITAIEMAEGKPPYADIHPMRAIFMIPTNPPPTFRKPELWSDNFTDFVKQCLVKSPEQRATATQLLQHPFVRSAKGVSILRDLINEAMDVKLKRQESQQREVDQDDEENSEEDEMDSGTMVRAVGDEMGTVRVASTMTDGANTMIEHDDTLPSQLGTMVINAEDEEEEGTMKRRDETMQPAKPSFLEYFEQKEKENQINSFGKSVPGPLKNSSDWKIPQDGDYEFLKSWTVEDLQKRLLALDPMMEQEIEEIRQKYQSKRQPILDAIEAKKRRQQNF
Mitogen-activated protein kinase 9, sequence (P45984 whole entry, looked up): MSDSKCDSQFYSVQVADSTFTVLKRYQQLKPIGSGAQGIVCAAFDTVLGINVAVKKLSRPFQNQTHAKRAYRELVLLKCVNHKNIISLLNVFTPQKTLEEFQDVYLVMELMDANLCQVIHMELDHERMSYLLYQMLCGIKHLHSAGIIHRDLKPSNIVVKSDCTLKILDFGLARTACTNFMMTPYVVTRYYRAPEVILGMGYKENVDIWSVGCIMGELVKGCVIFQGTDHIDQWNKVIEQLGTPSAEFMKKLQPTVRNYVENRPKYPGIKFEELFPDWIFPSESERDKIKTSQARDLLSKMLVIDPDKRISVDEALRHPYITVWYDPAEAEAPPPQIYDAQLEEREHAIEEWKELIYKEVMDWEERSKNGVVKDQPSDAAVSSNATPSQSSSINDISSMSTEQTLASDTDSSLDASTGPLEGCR
Serine/threonine-protein kinase 32C (Homo sapiens), sequence (Q86UX6 whole entry): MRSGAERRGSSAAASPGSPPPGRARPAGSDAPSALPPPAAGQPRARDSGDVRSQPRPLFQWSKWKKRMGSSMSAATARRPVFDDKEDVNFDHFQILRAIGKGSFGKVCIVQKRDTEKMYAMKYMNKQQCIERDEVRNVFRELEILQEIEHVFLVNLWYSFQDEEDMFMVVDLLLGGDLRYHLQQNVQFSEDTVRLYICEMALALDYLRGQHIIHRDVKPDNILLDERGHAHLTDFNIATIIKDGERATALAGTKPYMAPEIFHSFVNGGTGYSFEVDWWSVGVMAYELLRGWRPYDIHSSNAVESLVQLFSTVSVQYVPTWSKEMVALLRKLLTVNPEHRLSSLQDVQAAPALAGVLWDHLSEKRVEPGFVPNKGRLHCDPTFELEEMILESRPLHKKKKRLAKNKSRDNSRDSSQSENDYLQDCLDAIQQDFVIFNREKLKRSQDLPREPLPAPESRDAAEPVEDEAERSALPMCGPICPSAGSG
AMPK alpha1/alpha2 (Homo sapiens), sequence (P54646 whole entry, looked up): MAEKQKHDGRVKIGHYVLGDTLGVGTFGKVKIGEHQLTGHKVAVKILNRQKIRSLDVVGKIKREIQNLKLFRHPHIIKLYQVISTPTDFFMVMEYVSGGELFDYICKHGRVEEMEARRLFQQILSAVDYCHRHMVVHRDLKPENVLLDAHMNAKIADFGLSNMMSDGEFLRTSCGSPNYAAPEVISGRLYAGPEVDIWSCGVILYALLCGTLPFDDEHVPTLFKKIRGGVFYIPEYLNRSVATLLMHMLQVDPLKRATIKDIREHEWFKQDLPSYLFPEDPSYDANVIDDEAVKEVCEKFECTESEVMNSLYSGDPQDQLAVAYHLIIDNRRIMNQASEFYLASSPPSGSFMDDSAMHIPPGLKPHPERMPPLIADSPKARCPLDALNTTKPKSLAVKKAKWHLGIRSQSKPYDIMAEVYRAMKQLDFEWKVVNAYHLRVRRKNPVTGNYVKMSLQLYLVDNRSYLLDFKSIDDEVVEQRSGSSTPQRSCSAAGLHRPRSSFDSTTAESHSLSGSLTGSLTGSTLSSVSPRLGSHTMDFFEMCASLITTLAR
AMPK alpha1/alpha2 (Homo sapiens), sequence (Q13131 whole entry, looked up): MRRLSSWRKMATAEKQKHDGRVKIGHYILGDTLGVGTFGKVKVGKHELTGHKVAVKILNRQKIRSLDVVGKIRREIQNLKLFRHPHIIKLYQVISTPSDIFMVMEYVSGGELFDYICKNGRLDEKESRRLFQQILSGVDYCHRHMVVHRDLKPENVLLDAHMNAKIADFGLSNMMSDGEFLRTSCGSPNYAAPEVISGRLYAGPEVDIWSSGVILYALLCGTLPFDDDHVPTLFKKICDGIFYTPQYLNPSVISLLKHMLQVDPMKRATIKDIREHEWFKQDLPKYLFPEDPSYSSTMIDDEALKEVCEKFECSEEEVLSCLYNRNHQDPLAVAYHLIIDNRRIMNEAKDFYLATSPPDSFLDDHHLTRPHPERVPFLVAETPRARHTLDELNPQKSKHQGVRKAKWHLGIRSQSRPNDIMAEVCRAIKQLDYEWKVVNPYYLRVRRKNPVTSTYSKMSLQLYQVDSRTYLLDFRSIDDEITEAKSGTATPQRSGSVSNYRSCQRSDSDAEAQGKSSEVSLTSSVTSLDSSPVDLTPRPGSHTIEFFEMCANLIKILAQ
Mitogen-activated protein kinase kinase kinase 4 (Homo sapiens), sequence (Q9Y6R4 whole entry): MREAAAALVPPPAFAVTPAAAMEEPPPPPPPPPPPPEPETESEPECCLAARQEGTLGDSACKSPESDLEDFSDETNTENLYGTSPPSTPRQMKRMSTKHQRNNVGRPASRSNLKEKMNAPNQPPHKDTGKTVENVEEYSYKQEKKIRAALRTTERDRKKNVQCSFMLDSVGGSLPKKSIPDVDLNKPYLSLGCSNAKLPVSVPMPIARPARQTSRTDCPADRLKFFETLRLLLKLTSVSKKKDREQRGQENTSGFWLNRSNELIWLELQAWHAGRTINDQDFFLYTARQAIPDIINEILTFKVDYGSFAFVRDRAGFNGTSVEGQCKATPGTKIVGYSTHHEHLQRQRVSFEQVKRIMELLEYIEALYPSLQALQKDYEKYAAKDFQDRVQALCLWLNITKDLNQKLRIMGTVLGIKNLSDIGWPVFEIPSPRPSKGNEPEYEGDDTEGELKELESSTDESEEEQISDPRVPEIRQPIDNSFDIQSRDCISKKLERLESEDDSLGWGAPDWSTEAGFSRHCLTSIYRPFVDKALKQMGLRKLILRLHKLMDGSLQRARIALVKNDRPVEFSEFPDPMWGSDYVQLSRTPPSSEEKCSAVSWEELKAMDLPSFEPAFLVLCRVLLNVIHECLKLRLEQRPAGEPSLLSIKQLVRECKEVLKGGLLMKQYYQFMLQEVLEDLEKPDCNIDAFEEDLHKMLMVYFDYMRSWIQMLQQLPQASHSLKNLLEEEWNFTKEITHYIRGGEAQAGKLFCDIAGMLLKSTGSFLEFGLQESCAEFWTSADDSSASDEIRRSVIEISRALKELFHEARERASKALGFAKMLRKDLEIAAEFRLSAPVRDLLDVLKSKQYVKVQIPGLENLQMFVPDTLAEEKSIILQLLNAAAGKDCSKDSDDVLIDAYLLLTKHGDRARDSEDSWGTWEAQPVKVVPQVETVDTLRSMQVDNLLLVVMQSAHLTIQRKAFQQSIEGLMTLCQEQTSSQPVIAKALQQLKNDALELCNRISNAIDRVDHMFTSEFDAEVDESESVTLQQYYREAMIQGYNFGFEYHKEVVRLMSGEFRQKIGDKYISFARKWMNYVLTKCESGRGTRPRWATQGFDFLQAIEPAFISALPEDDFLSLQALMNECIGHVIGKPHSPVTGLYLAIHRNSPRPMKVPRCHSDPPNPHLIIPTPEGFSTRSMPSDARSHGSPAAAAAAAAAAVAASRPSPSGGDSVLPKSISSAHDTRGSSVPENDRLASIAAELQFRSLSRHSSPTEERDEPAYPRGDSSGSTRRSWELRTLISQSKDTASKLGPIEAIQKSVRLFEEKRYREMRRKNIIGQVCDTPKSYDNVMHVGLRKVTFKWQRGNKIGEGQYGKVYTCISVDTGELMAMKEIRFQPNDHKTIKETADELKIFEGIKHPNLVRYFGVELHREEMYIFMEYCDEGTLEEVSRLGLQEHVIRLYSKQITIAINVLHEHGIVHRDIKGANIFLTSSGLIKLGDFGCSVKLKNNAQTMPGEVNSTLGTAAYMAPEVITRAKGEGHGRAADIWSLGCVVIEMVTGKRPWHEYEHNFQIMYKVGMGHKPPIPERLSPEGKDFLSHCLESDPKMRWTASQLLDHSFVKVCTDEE
Serine/threonine-protein kinase/endoribonuclease IRE1 (Homo sapiens), sequence (O75460 19-977 limits assumed): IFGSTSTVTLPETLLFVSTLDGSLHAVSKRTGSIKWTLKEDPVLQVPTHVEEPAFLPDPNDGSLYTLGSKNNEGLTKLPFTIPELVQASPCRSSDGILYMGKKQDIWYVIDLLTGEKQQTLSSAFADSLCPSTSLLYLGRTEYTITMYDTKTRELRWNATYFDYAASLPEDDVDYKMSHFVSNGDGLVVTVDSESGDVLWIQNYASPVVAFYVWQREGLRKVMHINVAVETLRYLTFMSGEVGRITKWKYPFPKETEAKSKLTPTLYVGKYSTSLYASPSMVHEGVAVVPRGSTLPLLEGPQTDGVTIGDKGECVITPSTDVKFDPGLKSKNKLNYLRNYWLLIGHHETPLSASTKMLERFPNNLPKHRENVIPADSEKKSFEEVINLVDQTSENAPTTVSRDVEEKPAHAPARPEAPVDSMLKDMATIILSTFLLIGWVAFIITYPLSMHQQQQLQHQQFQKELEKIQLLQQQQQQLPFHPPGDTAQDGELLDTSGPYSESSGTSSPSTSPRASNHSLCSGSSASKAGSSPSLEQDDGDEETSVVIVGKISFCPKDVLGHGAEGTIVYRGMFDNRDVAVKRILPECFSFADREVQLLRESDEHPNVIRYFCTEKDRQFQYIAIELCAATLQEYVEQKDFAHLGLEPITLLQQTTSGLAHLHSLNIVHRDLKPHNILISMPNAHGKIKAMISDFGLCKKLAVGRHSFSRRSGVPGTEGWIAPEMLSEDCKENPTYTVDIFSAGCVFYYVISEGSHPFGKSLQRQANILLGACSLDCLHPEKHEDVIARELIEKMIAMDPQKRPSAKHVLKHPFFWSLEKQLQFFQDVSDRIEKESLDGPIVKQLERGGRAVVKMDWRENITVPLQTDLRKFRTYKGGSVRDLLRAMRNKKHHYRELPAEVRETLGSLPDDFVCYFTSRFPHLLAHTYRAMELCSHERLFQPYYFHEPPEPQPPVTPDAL

Consider `CNc1cc(Oc2cc(C(=O)Nc3cc(N4CCN(C)CC4)cc(C(F)(F)F)c3)ccc2C)ncn1`, for which the inhibition is 14.4% in [1], -5.8% in [2], 9.9% in experiment [3] and 14.5% in experiment [4].

Take `CCN1CCN(Cc2ccc(NC(=O)c3ccc(C)c(/C=C/c4cnc5[nH]ccc5c4OC)c3)cc2C(F)(F)F)CC1`: the inhibition in [5] was 11.5%; in [7], 47%. This compound displayed a residual activity in [6] of 34%.

Regarding `CCN1CCN(Cc2ccc(NC(=O)c3ccc(C)c(Oc4ccnc5[nH]ccc45)c3)cc2C(F)(F)F)CC1`, the inhibition in experiment [8] was 15.9%; in [9] it was 8.8%; in [10], -8.5%; in experiment [11], 12.5%. For the same compound, the inhibition result in experiment [12] is “inactive”.

One may read the inhibition as the change of the read-out against control, counted positive when it falls. In general, residual activity refers to the activity still measured, relative to the control.
